Results taken from US7579167B2, “Polypeptides involved in the biosynthesis of spiramycins, nucleotide sequences encoding these polypeptides and applications thereof” (Aventis Pharma S., priority 2002, dated 2009).

Legend:
[1] = comparison with spiramycins II and III; cited from earlier work
[2] = test system: Micrococcus luteus
Source text: The strain of Micrococcus luteus used is a strain naturally sensitive to spiramycin but resistant to congocidine.

| Compound | antibiotic activity compared with spiramycins II and III [1] | activity compared with the spiramycin of origin with the methyl group at position 4 (less active by a factor) ([2]; microbiological test on a sensitive strain of M. luteus) | microbiological activity compared with the unmodified spiramycin (weaker) ([2]; tested on the microorganism Micrococcus luteus, relative to unmodified spiramycin) [fold] |
| --- | --- | --- | --- |
| CO[C@@H]1[C@@H](O[C@@H]2O[C@H](C)[C@@H](O[C@H]3C[C@@](C)(O)[C@@H](O)[C@H](C)O3)[C@H](N(C)C)[C@H]2O)[C@@H](CC=O)C[C@@H](C)[C@@H](O[C@H]2CC[C@H](N(C)C)[C@@H](C)O2)/C=C/C=C/C[C@@H](C)OC(=O)C[C@H]1O [spiramycin I] | clearly greater | – | – |
| CC1CC=CC=CC(OC2CCC(N(C)C)C(C)O2)C(C)CC(CC=O)C(OC2OC(C)C(OC3CC(C)(O)C(O)C(C)O3)C(N(C)C)C2O)C(O)C(O)CC(=O)O1 (stereo not drawn) [spiramycin without the methyl group] | – | 10 | 10 |
